Earlier results as cited in patent US6506390B2, “Progestogen-anti-progestogen regimens” (Akzo Nobel, priority 1996, dated 2003).

Key:
[1] = based on practically applied doses; for relative potency in progestogenic activity: levonorgestrel, desogestrel and 3-keto-desogestrel compared with each other
[2] = as an approximation

For `C#C[C@]1(O)CC[C@H]2[C@@H]3CCC4=CC(=O)CC[C@@H]4[C@H]3C(=C)C[C@@]21CC` [3-keto-desogestrel], the “relative potency in progestogenic activity” value [1] is given as “relatively equipotent”.
For `C#C[C@]1(O)C=C[C@H]2[C@@H]3CCC4=CC(=O)CC[C@@H]4[C@H]3CC[C@@]21CC` [Gestodene, gestodene], the “potency relative to levonorgestrel, desogestrel and 3-keto-desogestrel” value ([1]; progestogenic activity) is given as “approximately 1.5 times”.
For `C#CC1(O)CC[C@H]2[C@@H]3CCC4=CC(=O)CC[C@@H]4[C@H]3CC[C@@]21CC` (some centres unmarked) [Norgestrel, norgestrel], the “potency relative to levonorgestrel” value ([1]; progestogenic activity) is given as “about one-half”.
In the case of `C#C[C@]1(O)CC[C@H]2[C@@H]3CCC4=CCCC[C@@H]4[C@H]3C(=C)C[C@@]21CC` [desogestrel, 13-ethyl-11-methylene-18,19-di-nor-17α-pregn-4-en-20-yn-17-ol], the “relative potency in progestogenic activity” value [1] is given as “relatively equipotent”.
For `C#C[C@]1(O)CC[C@H]2[C@@H]3CCc4cc(OC)ccc4[C@H]3CC[C@@]21C` [mestranol, 17-α-ethinyl estradiol 3-methylether], the “amount equivalent in estrogenic activity to 1 mg of 17β-estradiol” value [2] is given as ~0.030 mg.
